Source: publication PMC12650355 (2025)

Assays:
[1] = system: Apt2 (DNA, aptamer) ACTTCAGTGAGTTGTCCCACGGTCGGCGAGTCGGTGGTAG; assay: SPR (Biacore T200), steady-state fit; details: 100 mM Na+, 5 mM K+, 2 mM Mg2+, 1 mM Ca2+ (sample diluent Buf1); running buffer PBS; diluent Buf1, 20 mM Tris-HCl pH 7.4; SA-coated CM5 chip
[2] = system: Apt2 (DNA, aptamer) ACTTCAGTGAGTTGTCCCACGGTCGGCGAGTCGGTGGTAG; assay: SPR (Biacore T200), single concentration; details: 100 mM Na+, 5 mM K+, 2 mM Mg2+, 1 mM Ca2+ (sample diluent Buf1), diluent Buf1 pH 7.4, SA-coated CM5 chip
[3] = 6.4 μM tested, running buffer PBS not restated

For `O=C(N[C@H](CO)[C@H](O)c1ccc([N+](=O)[O-])cc1)C(Cl)Cl`, the KD [1] was 141 nM.
With `CS(=O)(=O)c1ccc([C@@H](O)[C@@H](CF)NC(=O)C(Cl)Cl)cc1` the binding [2, 3] was “no”.
With `CO/N=C(\C(=O)N[C@@H]1C(=O)N2C(C(=O)O)=C(COC(N)=O)CS[C@H]12)c1ccco1` the binding ([2]; 6.4 μM tested (printed CN, CXM)) was “no”.
`CS(=O)(=O)c1ccc([C@@H](O)[C@@H](CO)NC(=O)C(Cl)Cl)cc1` was tested, and the binding [2, 3] was “no”.
